Test results taken from US20260232713A1, “PLECOMACROLIDE DERIVATIVES FOR MHC-I NEF DOWNMODULATION” (priority 2022, published 2026).
pIC50: −log10 of the molar value. Entries after “also recorded” stand apart in the source; their conditions may differ. Like-named read-outs stand apart in the source and are kept apart here.

Experiments:
V-ATPase [1] = molecular target: T1, V-ATPase (Homo sapiens, UniProt P27449); assay: Lysosomal acidification (Lysotracker mean fluorescence intensity) as indicator of V-ATPase activity in primary CD4+ T cells; assay type: cell-based
T1 construct: endogenous in cells; host or cells: primary CD4+ T cells (HIV ΔGPE infected) from donor PBMCs
Method: (§1) Inhibition of HIV-Nef was measured by assessing its capacity to downmodulate MHC-I HLA-A2 on the surface of primary CD4+ T cells 24-hours after treatment with each compound. V-ATPase inhibition was assessed at the same time point using lysosomal acidification as an indicator of V-ATPase activity. This was measured using a flow cytometric assay that quantified Lysotracker mean fluorescence intensity as previously described (Painter et al., 2020). Cell viability was measured at 24-hour and 72-hour time points using a previously described flow cytometric assay (Painter et al., 2020).
(§2) Anonymized leukocytes isolated by apheresis were obtained from New York Blood Center and peripheral blood mononuclear cells (PBMCs) were isolated by Ficoll-Paque Plus (17144002; GE Healthcare) centrifugation using SepMate tubes (85450; StemCell Technologies) according to the manufacturers protocol. […] Then, 20-24 hours post-PHA activation, 15 mL of R10/PHA medium is removed and replaced with 5 mL of R10+100u/mL Recombinant Human IL-2 (202|L010; R&D Systems). 48 hours after IL-2 stimulation, primary CD4^+ T cells were infected via spinoculation with previously described HIV ΔGPE construct.
(§3) 48 hours after spinoculation, cells were pooled and plated in flat bottom 96-well plate. […] Compounds were thawed at room temperature and diluted in R10 medium to 2× starting concentration.
(§4) All ΔGPE infected cells were collected 24 hours after treatment.
(§5) All statistical analyses were performed using GraphPad Prism software. Curves were generated using GraphPad Prism software using [Inhibitor] vs. response with variable slope (four parameters).

in vitro = settings: human
Method: as §1, §2, §3, §4
(§6) All Mock cells were collected 72 hours after treatment.
as §5

HIV-Nef [2] = molecular target: T2, HIV-Nef (Human immunodeficiency virus type 1, UniProt P03406); assay: Inhibition of HIV-Nef downmodulation of MHC-I HLA-A2 on the surface of HIV ΔGPE infected primary CD4+ T cells (flow cytometry); assay type: cell-based; settings: for Nef (Nef IC50) / pIC50: HLA-A2 surface expression, ΔGPE infected primary CD4+ T cells, 24 hours after treatment
T2 sequence (P03406 2-206): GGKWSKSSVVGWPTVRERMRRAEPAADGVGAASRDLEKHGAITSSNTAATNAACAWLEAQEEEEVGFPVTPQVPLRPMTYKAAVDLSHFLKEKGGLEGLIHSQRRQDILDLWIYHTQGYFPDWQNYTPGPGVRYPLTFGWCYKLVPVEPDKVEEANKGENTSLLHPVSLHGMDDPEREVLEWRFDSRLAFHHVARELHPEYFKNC

V-ATPase [3] = settings: literature report; cited from earlier work
HIV-Nef [4] = molecular target: T2, HIV-Nef; settings: literature report; cited from earlier work
primary CD4+ T cells = assay: in vitro; settings: for CC50: read-out: Viability (TC50), mock primary CD4+ T cells, 72 hours after treatment; for Viability:Nef (therapeutic window separating Nef IC50 and TC50): ratio TC50 to Nef IC50
Method: as §1, §2, §3, §4, §6, §5

[5] = Lysotracker Red, ΔGPE infected primary CD4+ T cells, 24 hours after treatment
[6] = Lysotracker Red, ΔGPE infected primary CD4+ T cells, 24 hours after treatment, read-out: Lysotracker (V-ATPase IC50, lysosomal neutralization)

T1 sequence (P27449 whole entry, looked up): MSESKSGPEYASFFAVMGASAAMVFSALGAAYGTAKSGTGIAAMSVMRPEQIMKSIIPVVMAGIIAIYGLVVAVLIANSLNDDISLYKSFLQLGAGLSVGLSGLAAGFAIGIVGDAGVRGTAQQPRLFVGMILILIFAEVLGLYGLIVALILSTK

Compound	pIC50 (V-ATPase [1])	pIC50 (V-ATPase [1]; [6])	CC50 (primary CD4+ T cells) [nM]	pIC50 (HIV-Nef [2])	CC50 (in vitro) [nM]	Viability:Nef (therapeutic window separating Nef IC50 and TC50) (primary CD4+ T cells) [fold]	further results
CO/C1=C\C(C)=C\[C@@H](C)C(=O)[C@@H](C)C/C(C)=C/C=C/[C@H](OC)[C@@H]([C@@H](C)[C@@H](O)[C@H](C)[C@@]2(O)C[C@@H](O)[C@H](C)[C@@H](C(C)C)O2)OC1=O [Compound S17]	< 6.00	–	–	–	–	–	Lysotracker (V-ATPase IC50, lysosomal neutralization) (V-ATPase [1]; [5]): above the activity threshold; CC50 at 72 h (in vitro): > 1000 nM; Nef (Nef IC50) (HIV-Nef [2]): abrogation of activity at all concentrations tested; also recorded: above the activity threshold
bafilomycin D	–	–	–	–	–	–	V-ATPase inhibition (previously reported) (V-ATPase [3]): low level V-ATPase inhibition; Potency as a Nef inhibitor (previously reported) (HIV-Nef [4]): very poor potency
C/C=C/[C@H]1O[C@@H]([C@@H](C)[C@H](O)[C@H](C)[C@H]2OC(=O)/C(OC)=C/C(C)=C/[C@@H](C)[C@@H](O)[C@@H](CC)[C@@H](O)[C@H](C)C/C(C)=C/C=C/[C@@H]2O)C[C@@H](O)[C@@H]1C [Compound S25, 21-Deoxy-16-Hydroxy CMF]	–	< 6.00	> 1000	6.40	–	–	Fold reduction of activity compared to 6 (HIV-Nef [2]; comparator CMF (6)): over 200 fold
CO/C1=C\C(C)=C\[C@@H](C)C(=O)[C@@H](C)C/C(C)=C/C=C/[C@H](OC)[C@@H]([C@@H](C)[C@@H](O)[C@H](C)[C@@]2(O)CC(=O)[C@H](C)[C@@H](C(C)C)O2)OC1=O [Compound S18]	< 6.00	–	–	–	> 1000	–	Lysotracker (V-ATPase IC50, lysosomal neutralization) (V-ATPase [1]; [5]): above the activity threshold; Nef (Nef IC50) (HIV-Nef [2]): above the activity threshold
CNC(=O)O[C@@H](CC(C)C)c1nc([C@H]2OC(=O)/C(C)=C/C/C(C)=C/[C@@H](O)[C@@H](C)\C=C(C)/C=C(C)\C=C\[C@@H](O)[C@H](C)[C@H](OC)/C(C)=C/C=C/[C@@H]2C)cs1 [Compound 3, Archazolid A, reference compound]	–	8.80	–	9.33	–	–	–
C/C=C/[C@H]1O[C@@H]([C@@H](C)[C@H](O)[C@H](C)[C@H]2OC(=O)/C(OC)=C/C(C)=C/[C@@H](C)[C@@H](O)[C@@H](CC)[C@@H](O)[C@H](C)C/C(C)=C/C=C/[C@@H]2OC)C[C@@H](O[C@@H]2C[C@H](O)[C@@H](O)[C@H](C)O2)[C@@H]1C [Compound S62, 21-Deoxy CMC]	8.22	–	–	–	2	1.8	–
COC1=CC(C)=CC(C)C(O)C(C)CC(C)=CC=CC(OC)C(C(C)C(O)C(C)C2(O)CC(OC3OC(C)C(O)C(O)C3OC)C(C)C(C(C)C)O2)OC1=O (centres unmarked) [Compound S14, Leucanicidin, reference compound]	8.60	–	–	–	1.4	1.3	–
CO/C1=C\C(C)=C\[C@@H](C)[C@@H](O)[C@@H](C)C/C(C)=C/C=C/[C@H](OC)[C@@H]([C@@H](C)[C@@H](O)[C@H](C)[C@@]2(O)C[C@@H](OC=O)[C@H](C)[C@@H](C(C)C)O2)OC1=O [Compound S61]	7.92	–	–	–	7.3	2.6	–
CCCCCCCCC(=O)O[C@@H]1C[C@](O)([C@@H](C)[C@H](O)[C@H](C)[C@H]2OC(=O)/C(OC)=C/C(C)=C/[C@@H](C)[C@@H](O)[C@@H](C)C/C(C)=C/C=C/[C@@H]2OC)O[C@H](C(C)C)[C@H]1C [Compound S11]	6.82	–	–	–	140	1.1	–
Elaiophylin [Compound S16, reference compound]	–	–	160	6.60	–	–	Fold decrease in Nef potency compared to 2 (HIV-Nef [2]; […]): 20 fold
CC=CC1OC(O)(C(C)C(O)C(C)C2OC(=O)C(OC)=CC(C)=CC(C)C(O)C(CC)C(O)C(C)CC(C)=CC=CC2OC)CC(OC2CC(O)C(OC(N)=O)C(C)O2)C1C (centres unmarked) [Compound 1, Concanamycin A, reference compound]	8.77	–	–	–	1.3	6.6	–
21-Deoxy CMF [Compound S24]	–	7.49	9.4	8.35	–	2.2	–
CC[C@H]1OC(=O)[C@H](C)[C@@H](O)[C@H](C)[C@@H](O)[C@@H](C)C[C@@H](C)C(=O)[C@H](C)[C@@H](O)[C@H]1C [Compound S31, 6-deoxyerythronolide B, reference compound]	–	< 6.00	> 1000	< 6.00	–	–	–
